Results on 14 molecules are retold here after patent US10752640B2, “Compounds active towards bromodomains” (NUEVOLUTION A/S, priority 2014, dated 2020).

In general, IC50 refers to the concentration that inhibits the measured activity by half.

Some results are limits rather than exact numbers.

This experiment addresses BRD4 protein (Homo sapiens, UniProt O60885). Briefly: FRET assay, half maximal inhibitory concentration (IC50). The settings on record: BRD4 protein 50 nM, Biotin-H4KAc4 peptide 12.5 nM; List of Classification. It is filed as binding. How it is done:
The compounds were biologically evaluated by determining the half maximal inhibitory concentration (IC50) by FRET assay. The IC50 is a measure of the effectiveness of a substance in inhibiting a specific biological or biochemical function.
For IC50 determinations, dose-response curves were generated, using a top concentration of 50 μM compound in 12.5% DMSO, followed by 10-fold dilutions in 12.5% DMSO. The composition of the reaction buffer was 50 mM HEPES, pH 7.5; 100 mM NaCl, 0.05% CHAPS.
The reaction was run in a final volume of 25 μl. The BRD4 protein (16.5 μl) was added to wells of 384w white Optiplates (Perkin Elmer) (50 nM final concentration) and 1 μl of compound dilution of DMSO control. Incubation time was 30 minutes at room temperature. In the next step, 2.5 μl Biotin-H4KAc4 peptide (Millipore 13-379) was added to the wells (final concentration was 12.5 nM), and the plates were incubated for 30 minutes at room temperature. Detection was performed by addition of 5 μl of a mix of mAb GST-XL665 (Cisbio 61GSTXLB) (10 nM final concentration) and Streptavidin Cryptate (Cisbio 610SAKLB) (2.4 nM final conc.) in reaction buffer with 0.4M KF and 0.05% BSA). The plates were incubated for one hour prior to reading on an Envision reader (Perkin Elmer)
Data was analyzed using GraphPad Prism, and IC50 data was obtained using non-linear regression curve fit using log(inhibitor) vs response (variable slope). All compounds were considered active although classified (according to the half maximal inhibitory concentration (IC50) by FRET assay) as follows: […]
For the molecule `Cc1cc(O)nc2ccc(NC(=O)c3cc(CN4CCNCC4)ccc3N3CCCC3)cc12` [Compound-2, N-(2-hydroxy-4-methylquinolin-6-yl)-5-(piperazin-1-ylmethyl)-2-(pyrrolidin-1-yl)benzamide], the IC50 is < 0.2 µM. On to `Cc1cc(O)nc2ccc(NC(=O)c3cc(CN4CCOCC4)ccc3N3CCCC3)cc12` [Compound-3, N-(2-hydroxy-4-methylquinolin-6-yl)-5-(morpholinomethyl)-2-(pyrrolidin-1-yl)benzamide], for which the IC50 is < 0.2 µM. With `CC(=O)N1CCN(Cc2ccc(N3CCCC3)c(C(=O)Nc3ccc4nc(O)cc(C)c4c3)c2)CC1` [Compound-4, 5-[(4-acetylpiperazin-1-yl)methyl]-N-(2-hydroxy-4-methyl-6-quinolyl)-2-pyrrolidin-1-yl-benzamide], the IC50 is < 0.2 µM.

As for `Cc1cc(O)nc2ccc(NC(=O)c3cc(S(=O)(=O)N4CCN(C)CC4)ccc3N3CCOCC3)cc12` [Compound-5, N-(2-hydroxy-4-methylquinolin-6-yl)-5-(4-methylpiperazin-1-ylsulfonyl)-2-morpholino benzamide], the IC50 was < 0.2 µM. Turning to `Cc1cc(O)nc2ccc(NC(=O)c3cc(S(=O)(=O)N4CCC(N(C)C)C4)ccc3N3CCOCC3)cc12` (centres unmarked) [Compound-6, 5-[3-(dimethylamino)pyrrolidin-1-yl]sulfonyl-N-(2-hydroxy-4-methyl-6-quinolyl)-2-morpholino-benzamide], the IC50 is < 0.2 µM. For `Cc1cc(O)nc2ccc(NC(=O)c3cc(S(=O)(=O)N4CC(N(C)C)C4)ccc3N3CCOCC3)cc12` [Compound-7, 5-[3-(dimethylamino)azetidin-1-yl]sulfonyl-N-(2-hydroxy-4-methyl-6-quinolyl)-2-morpholino-benzamide], the half-maximal inhibitory concentration (IC50) is < 0.2 µM. In the case of `Cc1cc(O)nc2ccc(NC(=O)c3cc(S(=O)(=O)N4CC(N)C4)ccc3N3CCOCC3)cc12` [Compound-8, 1-(3-(2-hydroxy-4-methylquinolin-6-ylcarbamoyl)-4-morpholinophenylsulfonyl) azetidin-3-aminium 2,2,2-trifluoroacetate], the IC50 is < 0.2 µM. Regarding `Cc1cc(O)nc2ccc(NC(=O)c3cc(C(=O)N(C)C)ccc3N3CCOCC3)cc12` [Compound-9, N3-(2-hydroxy-4-methyl-6-quinolyl)-N1,N1-dimethyl-4-morpholino-benzene-1,3-dicarboxamide], the IC50 is < 0.2 µM. Consider `Cc1cc(O)nc2ccc(NC(=O)c3cc(C(=O)N4CCN(C)CC4)ccc3N3CCOCC3)cc12` [Compound-10, N-(2-hydroxy-4-methyl-6-quinolyl)-5-(4-methylpiperazine-1-carbonyl)-2-morpholino-benzamide], for which the IC50 is < 0.2 µM.

As for `Cc1cc(O)nc2ccc(NC(=O)c3cc(C(=O)N4CCOCC4)ccc3N3CCOCC3)cc12` [Compound-11, N-(2-hydroxy-4-methylquinolin-6-yl)-5-(morpholine-4-carbonyl)-2-morpholinobenzamide], the IC50 is 0.2 to 0.5 µM. `Cc1cc(O)nc2ccc(NC(=O)c3cc(C(N)=O)ccc3N3CCOCC3)cc12` [Compound-12, N3-(2-hydroxy-4-methyl-6-quinolyl)-4-morpholino-benzene-1,3-dicarboxamide] showed an IC50 of 0.2 to 0.5 µM. `COCc1ccc(N2CCCC2)c(C(=O)Nc2ccc3nc(O)cc(C)c3c2)c1` [Compound-13, N-(2-hydroxy-4-methylquinlin-6-yl)-5-(methoxymethyl)-2-(pyrrolidin-1-yl) benzamide]: the IC50 was < 0.2 µM.

Consider `Cc1cc(O)nc2ccc(NC(=O)c3cc(CO)ccc3N3CCCC3)cc12` [Compound-14, N-(2-hydroxy-4-methylquinlin-6-yl)-5-(hydroxymethyl)-2-(pyrrolidin-1-yl) benzamide], for which the IC50 was 0.2 to 0.5 µM. As to `Cc1cc(O)nc2ccc(NC(=O)c3cc(S(=O)(=O)N(C)C)ccc3N3CCN(C)CC3)cc12` [Compound-15, 5-(N, N-dimethylsulfamoyl)-N-(2-hydroxy-4-methylquinolin-6-yl)-2-(4-methylpiperazin-1-yl) benzamide], the IC50 is < 0.2 µM.
